The source of these data is US20040109832A1, “Di-substituted resorcinols as skin lightening agents” (Unilever Home & Personal Care USA, Division Of Conopco, Inc., priority 2002, published 2004).

This experiment deals with T1, mushroom tyrosinase.
T1 construct: mushroom tyrosinase (Sigma T-7755)
In words: Mushroom Tyrosinase Assay. The class given is biochemical. The note with it: for Percent of Control: slope ΔAbs 475 nm/min vs ethanol control; for IC50: L-DOPA substrate, absorbency at 475 nm, pH 7.0, read-out: IC50 (skin lightener concentration that results in 50% tyrosinase inhibition relative to the control); for skin lightening effectiveness (tyrosinase inhibition), in words: conclusion from Tables 8 and 9. The method, then: Mushroom tyrosinase inhibition is indicative of reduction in melanin synthesis, thereby showing skin lightening effect. […] Following an initial measurement of background absorbency at 475-nm, 20 microliters of mushroom tyrosinase (Sigma T-7755; 6050 units/ml) was added and incubated at room temperature. Absorbency is read at 475-nm over the following time points: 0, 2, 4, and 6.5 minutes. The data is plotted as 475-nm absorbency vs. time (minutes) and the slope of the line is calculated (ΔAbs 475 nm/ min).

The mark [1] stands for this setting: Table 9, Concentration 1 micro M.
The mark [2] stands for this setting: Table 9, Concentration 10 micro M.
The mark [3] stands for this setting: Table 9, Concentration 50 micro M.
Where [4] appears, read: Table 9, Concentration 100 micro M.

`CCc1ccc(O)cc1O` [4-Ethyl Resorcinol, 4-ethyl resorcinol]: the IC50 was 350 nM. Also, the “Percent of Control” value (Concentration 0.0156 micro M) was 86% of Control. Moreover, the “Percent of Control” value (Concentration 0.0312 micro M) is listed as 82% of Control. The “Percent of Control” value (Concentration 0.0625 micro M) is reported as 72% of Control. The “Percent of Control” value (Concentration 0.125 micro M) is 64% of Control. Also, the “Percent of Control” value (Concentration 0.25 micro M) was 57% of Control. In addition, the “Percent of Control” value (Concentration 0.5 micro M) was 43% of Control. In addition, the “Percent of Control” value (Concentration 1 micro M) is 32% of Control. Further, the “Percent of Control” value (Concentration 10 micro M) is 25% of Control. Further, where the note is “Concentration 50 micro M”, the “Percent of Control” value is reported as 21% of Control. The “Percent of Control” value (Concentration 100 micro M) is reported as 18% of Control. Besides, the “% of Control (Melanin Synthesis)” value under setting [1] is on record as 32 % of Control. Moreover, the “% of Control (Melanin Synthesis)” value under setting [2] is recorded as 25 % of Control. For the same compound, the “% of Control (Melanin Synthesis)” value under setting [3] is reported as 21 % of Control. Besides, the “% of Control (Melanin Synthesis)” value under setting [4] is 18 % of Control.
With `CC(C)c1cc(C(C)C)c(O)cc1O` [4,6-Diisopropyl Resorcinol, 4,6-di-isopropyl resorcinol], the IC50 amounted to 750 nM and the “skin lightening effectiveness (tyrosinase inhibition), in words” value is given as “comparable to 4-Ethyl Resorcinol”. In addition, the “Percent of Control” value (Concentration 0.0156 micro M) is on record as 96.7% of Control. The “Percent of Control” value (Concentration 0.0312 micro M) was 94.9% of Control. The “Percent of Control” value (Concentration 0.0625 micro M) is listed as 93.1% of Control. The “Percent of Control” value (Concentration 0.125 micro M) is 86.0% of Control. In addition, for the setting “Concentration 0.25 micro M”, the “Percent of Control” value is on record as 75.2% of Control. In addition, the “Percent of Control” value (Concentration 0.5 micro M) is 60.9% of Control. Besides, the “Percent of Control” value (Concentration 1 micro M) is listed as 48.4% of Control. Further, the “Percent of Control” value (Concentration 10 micro M) is reported as 28.7% of Control. In addition, the “Percent of Control” value (Concentration 50 micro M) is 34.0% of Control. Moreover, where the note is “Concentration 100 micro M”, the “Percent of Control” value is listed as 39.4% of Control. Also, under setting [1], the “% of Control (Melanin Synthesis)” value is recorded as 48 % of Control. Under setting [2], the “% of Control (Melanin Synthesis)” value is given as 29 % of Control. The “% of Control (Melanin Synthesis)” value under setting [3] is on record as 34 % of Control. Moreover, the “% of Control (Melanin Synthesis)” value under setting [4] was 39 % of Control. For the same compound, the “skin lightening effectiveness (tyrosinase inhibition), in words” value (listed as 4,6-di-Isopropyl resorcinols) is “effective skin lightening compounds”.
Turning to `CC(C)c1ccc(O)cc1O` [4-Isopropyl Resorcinol, 4-isopropyl resorcinol], the IC50 is approximately 50 nM and the “skin lightening effectiveness (tyrosinase inhibition), in words” value is on record as “effective skin lightening compounds”. Moreover, the “Percent of Control” value (Concentration 0.0156 micro M) is reported as 80.6% of Control. The “Percent of Control” value (Concentration 0.0312 micro M) was 60.9% of Control. Besides, the “Percent of Control” value (Concentration 0.0625 micro M) is 46.6% of Control. In addition, the “Percent of Control” value (Concentration 0.125 micro M) was 35.8% of Control. For the same compound, under “Concentration 0.25 micro M”, the “Percent of Control” value was 30.4% of Control. For the same compound, the “Percent of Control” value (Concentration 0.5 micro M) was 28.7% of Control. Also, the “Percent of Control” value (Concentration 1 micro M) is 26.9% of Control. Besides, for the setting “Concentration 10 micro M”, the “Percent of Control” value is given as 28.7% of Control. The “Percent of Control” value (Concentration 50 micro M) was 28.7% of Control. Also, the “Percent of Control” value (Concentration 100 micro M) is given as 30.4% of Control. The “% of Control (Melanin Synthesis)” value under setting [1] is listed as 27 % of Control. Also, the “% of Control (Melanin Synthesis)” value under setting [2] is 29 % of Control. Moreover, the “% of Control (Melanin Synthesis)” value under setting [3] was 29 % of Control. Under setting [4], the “% of Control (Melanin Synthesis)” value is recorded as 30 % of Control.
As to `Oc1cccc(O)c1` [Resorcinol, resorcinol], the “skin lightening effectiveness (tyrosinase inhibition), in words” value was “no activity”. Besides, the “% of Control (Melanin Synthesis)” value under setting [1] was 98 % of Control. Also, the “% of Control (Melanin Synthesis)” value under setting [2] is recorded as 98 % of Control. Further, the “% of Control (Melanin Synthesis)” value under setting [3] is on record as 100 % of Control. Besides, under setting [4], the “% of Control (Melanin Synthesis)” value was 100 % of Control.
As to `Cc1cc(O)cc(O)c1C` [4,5-di-Methyl Resorcinol, 4,5-dimethyl resorcinol], the “skin lightening effectiveness (tyrosinase inhibition), in words” value is “not as effective”. Further, under setting [1], the “% of Control (Melanin Synthesis)” value was 95 % of Control. Besides, under setting [2], the “% of Control (Melanin Synthesis)” value is given as 51 % of Control. In addition, under setting [3], the “% of Control (Melanin Synthesis)” value was 35 % of Control. Also, the “% of Control (Melanin Synthesis)” value under setting [4] was 15 % of Control.
